# Results taken from US20240376100A1 (Redona Therapeutics, Inc., priority 2021, published 2024).
# Molecular target: PAPD5 enzyme (Homo sapiens, UniProt Q8NDF8)
# Assay: PAPD5 assay (AMP incorporation onto 3'-terminus of RNA substrate, fluorescence quench)
# Format: biochemical
# Conditions: PAPD5 protein 0.3 nM, ATP 50 μM, 30 minutes preincubation, room temperature; read-out: Potency PAPD5 IC50
# Procedure: The purpose of the PAPD5 assay is to determine compound potency against PAPD5 enzyme through the measurement of IC50. Compound inhibition is measured as a function of AMP incorporation onto the 3′-terminus of an RNA substrate in the presence of active PAPD5, ATP, and inhibitor. The PAPD5 assay was done in a black, non-binding, 384 well plate (Corning #3575). All steps were performed at room temperature. For a typical assay, a 40 ul aliquot of assay buffer (50 mM HEPES pH 7.3, 20 mM KCl, 10 mM MgCl2, 10 mMM DTT, 0.01% Triton X-100, 40 U/ml RNAsin (Promega)) containing PAPD5 protein (final 10 concentration: 0.3 nM) and ATP (final concentration 50 μM) was added to each well. Next, 1 ul of compound in 100% DMSO is transferred from a compound dilution plate in which the compound is serially diluted. The plate was placed on a plate shaker for 30 seconds to produce mixing, then incubated for 30 minutes. Next, 10 ul of a 5× mix of RNA substrate (5′-fluorescein-AUAGAG-3′ (IDT)) and a DNA oligonucleotide that is complementary to the AMP modified RNA product (5′-TCTCTATT-3′-TAMRA, wherein the first two nucleotides are locked nucleic acids (IDT)) was added (final concentrations: 5 nM and 20 nM, respectively). The plate was placed on a plate shaker for 30 seconds to produce mixing then immediately placed in a Biotek Cytation 5 plate reader, and the time-dependent decrease in fluorescein fluorescence resulting from annealing of the TAMRA labeled quenching probe was recorded, using the kinetics mode of the reader (typical run time is 90 minutes). Reaction rates were obtained using linear fits to the early portion of progress curves. IC50 values were calculated using a four-parameter fit with 100% enzyme activity determined from the DMSO control and 0% activity from control samples lacking UTP.
# “+” represents an IC50 value that is greater than 50 PM; “++” represents an IC50 value that is greater than 10 μM and equal to or less than 50 μM; “+++” represents an IC50 value that is greater than 1 μM and equal to or less than 10 μM; and “++++” represents an IC50 value that is equal to or less than 1 μM.
# PAPD5 enzyme, sequence (Q8NDF8 whole entry): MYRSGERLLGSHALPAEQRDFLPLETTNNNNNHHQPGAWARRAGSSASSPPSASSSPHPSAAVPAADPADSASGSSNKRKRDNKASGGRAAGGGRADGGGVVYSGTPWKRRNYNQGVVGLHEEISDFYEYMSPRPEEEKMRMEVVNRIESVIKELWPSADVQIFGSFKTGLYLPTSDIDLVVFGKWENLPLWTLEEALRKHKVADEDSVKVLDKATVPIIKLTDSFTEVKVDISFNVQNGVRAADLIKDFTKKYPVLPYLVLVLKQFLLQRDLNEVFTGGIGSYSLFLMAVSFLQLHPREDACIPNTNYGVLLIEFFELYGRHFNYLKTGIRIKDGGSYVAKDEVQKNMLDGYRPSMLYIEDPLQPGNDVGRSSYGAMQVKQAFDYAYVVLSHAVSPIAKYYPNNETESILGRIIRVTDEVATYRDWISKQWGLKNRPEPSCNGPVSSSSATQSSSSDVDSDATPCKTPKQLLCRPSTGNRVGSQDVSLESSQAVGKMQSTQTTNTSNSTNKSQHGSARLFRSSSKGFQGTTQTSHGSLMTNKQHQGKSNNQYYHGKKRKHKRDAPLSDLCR
row,Structure (SMILES),IC50 [µM]
1,"O=C(O)c1cn(-c2ccc(O)cc2F)c2cc(N3Cc4cccnc4C3)c(F)cc2c1=O [Example 29, 7-(5,7-dihydro-6H-pyrrolo[3,4-b]pyridin-6-yl)-6-fluoro-1-(2-fluoro-4-hydroxyphenyl)-4-oxo-1,4-dihydroquinoline-3-carboxylic acid]",≤ 1
2,"O=C(O)c1cn(-c2ccc(O)c(F)c2)c2cc(N3Cc4ccccc4C3)c(F)cc2c1=O [Example 31, 6-fluoro-1-(3-fluoro-4-hydroxyphenyl)-7-(isoindolin-2-yl)-4-oxo-1,4-dihydroquinoline-3-carboxylic acid]",≤ 1
3,"O=C(O)c1cn(CC2CCC2)c2cc(N3Cc4cccnc4C3)c(Cl)cc2c1=O [Example 33, 6-chloro-1-(cyclobutylmethyl)-7-(5,7-dihydro-6H-pyrrolo[3,4-b]pyridin-6-yl)-4-oxo-1,4-dihydroquinoline-3-carboxylic acid]",≤ 1
4,"CC(C)Cn1cc(C(=O)O)c(=O)c2cc(Cl)c(N3Cc4cccnc4C3)nc21 [Example 34, 6-chloro-7-(5,7-dihydro-6H-pyrrolo[3,4-b]pyridin-6-yl)-1-isobutyl-4-oxo-1,4-dihydro-1,8-naphthyridine-3-carboxylic acid]",≤ 1
5,"CN(C)C1CN(c2ccc(-n3cc(C(=O)O)c(=O)c4cc(C#N)c(N5Cc6cccnc6C5)cc43)cn2)C1 [Example 36, 6-cyano-7-(5,7-dihydro-6H-pyrrolo[3,4-b]pyridin-6-yl)-1-(6-(3-(dimethylamino)azetidin-1-yl)pyridin-3-yl)-4-oxo-1,4-dihydroquinoline-3-carboxylic acid]",≤ 1
6,"N#Cc1cc2c(=O)c(C(=O)O)cn(-c3ccc(O)c(F)c3)c2cc1N1Cc2cccnc2C1 [Example 37, 6-cyano-7-(5,7-dihydro-6H-pyrrolo[3,4-b]pyridin-6-yl)-1-(3-fluoro-4-hydroxyphenyl)-4-oxo-1,4-dihydroquinoline-3-carboxylic acid]",≤ 1
7,"N#Cc1cc2c(=O)c(C(=O)O)cn(-c3ccc(O)cc3F)c2cc1N1Cc2cccnc2C1 [Example 38, 6-cyano-7-(5,7-dihydro-6H-pyrrolo[3,4-b]pyridin-6-yl)-1-(2-fluoro-4-hydroxyphenyl)-4-oxo-1,4-dihydroquinoline-3-carboxylic acid]",≤ 1
8,"COc1cccc(Cn2cc(C(=O)O)c(=O)c3cc(Cl)c(N4Cc5cccnc5C4)nc32)c1 [Example 42, 6-chloro-7-(5,7-dihydro-6H-pyrrolo[3,4-b]pyridin-6-yl)-1-(3-methoxybenzyl)-4-oxo-1,4-dihydro-1,8-naphthyridine-3-carboxylic acid]",≤ 1
9,"COc1ccc(Cn2cc(C(=O)O)c(=O)c3cc(Cl)c(N4Cc5cccnc5C4)nc32)cc1 [Example 44, 6-chloro-7-(5,7-dihydro-6H-pyrrolo[3,4-b]pyridin-6-yl)-1-(4-methoxybenzyl)-4-oxo-1,4-dihydro-1,8-naphthyridine-3-carboxylic acid]",≤ 1
10,"Cc1nc(NC(=O)OC(C)(C)C)ccc1-n1cc(C(=O)O)c(=O)c2cc(Cl)c(N3Cc4cccnc4C3)cc21 [Example 46, 1-(6-((tert-butoxycarbonyl)amino)-2-methylpyridin-3-yl)-6-chloro-7-(5,7-dihydro-6H-pyrrolo[3,4-b]pyridin-6-yl)-4-oxo-1,4-dihydroquinoline-3-carboxylic acid]",≤ 1
11,"N#Cc1cc2c(=O)c(C(=O)O)cn(-c3cnccn3)c2cc1N1Cc2cccnc2C1 [Example 47, 6-cyano-7-(5,7-dihydro-6H-pyrrolo[3,4-b]pyridin-6-yl)-4-oxo-1-(pyrazin-2-yl)-1,4-dihydroquinoline-3-carboxylic acid]",≤ 1
12,"N#Cc1cc2c(=O)c(C(=O)O)cn(-c3ccc(N)nc3)c2cc1N1Cc2cccnc2C1 [Example 48, 1-(6-aminopyridin-3-yl)-6-cyano-7-(5,7-dihydro-6H-pyrrolo[3,4-b]pyridin-6-yl)-4-oxo-1,4-dihydroquinoline-3-carboxylic acid]",≤ 1
13,"COCCNc1ccc(-n2cc(C(=O)O)c(=O)c3cc(C#N)c(N4Cc5cccnc5C4)cc32)cn1 [Example 50, 6-cyano-7-(5,7-dihydro-6H-pyrrolo[3,4-b]pyridin-6-yl)-1-(6-((2-methoxyethyl)amino)pyridin-3-yl)-4-oxo-1,4-dihydroquinoline-3-carboxylic acid]",≤ 1
14,"N#Cc1cc2c(=O)c(C(=O)O)cn(-c3cccnc3)c2cc1N1Cc2cccc(F)c2C1 [Example 53, 6-cyano-7-(4-fluoroisoindolin-2-yl)-4-oxo-1-(pyridin-3-yl)-1,4-dihydroquinoline-3-carboxylic acid]",≤ 1
15,"COc1ccc(-n2cc(C(=O)O)c(=O)c3cc(C#N)c(N4Cc5cccnc5C4)cc32)cn1 [Example 55, 6-cyano-7-(5,7-dihydro-6H-pyrrolo[3,4-b]pyridin-6-yl)-1-(6-methoxypyridin-3-yl)-4-oxo-1,4-dihydroquinoline-3-carboxylic acid]",≤ 1
16,"N#Cc1cc2c(=O)c(C(=O)O)cn(-c3ccc(O)nc3)c2cc1N1Cc2cccnc2C1 [Example 56, 6-cyano-7-(5,7-dihydro-6H-pyrrolo[3,4-b]pyridin-6-yl)-1-(6-hydroxypyridin-3-yl)-4-oxo-1,4-dihydroquinoline-3-carboxylic acid]",≤ 1

# Second part, the compound after the results:
row,IC50 [µM],Structure (SMILES)
1,≤ 1,"O=C(O)c1cn(-c2ccc(O)cc2F)c2cc(N3Cc4ccccc4C3)c(Cl)cc2c1=O [Example 30, 6-chloro-1-(2-fluoro-4-hydroxyphenyl)-7-(isoindolin-2-yl)-4-oxo-1,4-dihydroquinoline-3-carboxylic acid]"
2,≤ 1,"O=C(O)c1cn(-c2ccc(O)cc2F)c2cc(N3Cc4ccccc4C3)c(F)cc2c1=O [Example 32, 6-fluoro-1-(2-fluoro-4-hydroxyphenyl)-7-(isoindolin-2-yl)-4-oxo-1,4-dihydroquinoline-3-carboxylic acid]"
3,≤ 1,"COc1ccc(-c2ccn(-c3cc4c(cc3F)c(=O)c(C(=O)O)cn4-c3ccc(O)cc3F)n2)cc1 [Example 39, 6-fluoro-1-(2-fluoro-4-hydroxyphenyl)-7-(3-(4-methoxyphenyl)-1H-pyrazol-1-yl)-4-oxo-1,4-dihydroquinoline-3-carboxylic acid]"
4,≤ 1,"O=C(O)c1cn(Cc2ccccc2)c2nc(N3Cc4cccnc4C3)c(Cl)cc2c1=O [Example 40, 1-benzyl-6-chloro-7-(5,7-dihydro-6H-pyrrolo[3,4-b]pyridin-6-yl)-4-oxo-1,4-dihydro-1,8-naphthyridine-3-carboxylic acid]"
5,≤ 1,"COc1ccccc1Cn1cc(C(=O)O)c(=O)c2cc(Cl)c(N3Cc4cccnc4C3)nc21 [Example 41, 6-chloro-7-(5,7-dihydro-6H-pyrrolo[3,4-b]pyridin-6-yl)-1-(2-methoxybenzyl)-4-oxo-1,4-dihydro-1,8-naphthyridine-3-carboxylic acid]"
6,≤ 1,"CC(c1ccccc1)n1cc(C(=O)O)c(=O)c2cc(Cl)c(N3Cc4cccnc4C3)nc21 (stereo not drawn) [Example 43, 6-chloro-7-(5,7-dihydro-6H-pyrrolo[3,4-b]pyridin-6-yl)-4-oxo-1-(1-phenylethyl)-1,4-dihydro-1,8-naphthyridine-3-carboxylic acid]"
7,≤ 1,"N#Cc1cc2c(=O)c(C(=O)O)cn(-c3cnccn3)c2nc1N1Cc2cccnc2C1 [Example 45, 6-cyano-7-(5,7-dihydro-6H-pyrrolo[3,4-b]pyridin-6-yl)-4-oxo-1-(pyrazin-2-yl)-1,4-dihydro-1,8-naphthyridine-3-carboxylic acid]"
8,≤ 1,"N#Cc1cc2c(=O)c(C(=O)O)cn(-c3ccc(N4CCC4)nc3)c2cc1N1Cc2cccnc2C1 [Example 49, 1-(6-(azetidin-1-yl)pyridin-3-yl)-6-cyano-7-(5,7-dihydro-6H-pyrrolo-[3,4-b]pyridin-6-yl)-4-oxo-1,4-dihydroquinoline-3-carboxylic acid]"
9,≤ 1,"Nc1ccc(-n2cc(C(=O)O)c(=O)c3cc(Cl)c(N4Cc5cccnc5C4)nc32)cn1 [Example 51, 1-(6-aminopyridin-3-yl)-6-chloro-7-(5,7-dihydro-6H-pyrrolo[3,4-b]pyridin-6-yl)-4-oxo-1,4-dihydro-1,8-naphthyridine-3-carboxylic acid]"
10,≤ 1,"Nc1ccc(-n2cc(C(=O)O)c(=O)c3cc(Cl)c(N4Cc5cccnc5C4)cc32)cn1 [Example 52, 1-(6-aminopyridin-3-yl)-6-chloro-7-(5,7-dihydro-6H-pyrrolo[3,4-b]pyridin-6-yl)-4-oxo-1,4-dihydroquinoline-3-carboxylic acid]"
11,≤ 1,"COc1cnc(-n2cc(C(=O)O)c(=O)c3cc(C#N)c(N4Cc5cccnc5C4)cc32)cn1 [Example 54, 6-cyano-7-(5,7-dihydro-6H-pyrrolo[3,4-b]pyridin-6-yl)-1-(5-methoxypyrazin-2-yl)-4-oxo-1,4-dihydro quinoline-3-carboxylic acid]"
